Reference: patent publication US8293771B2, “p38 MAP kinase inhibitors” (Respivert Ltd., priority 2008, dated 2012)

How the values were obtained:
[1] = tested on: LPS-induced neutrophil accumulation; test: LPS-induced neutrophilia in the mouse; assay type: in vivo
[2] = tested on: ovalbumin-mediated lung function changes (sGaw); test: Ovalbumin challenge/parainfluenza infection model (in vivo model for steroid resistance); parameters: species or system Dunkin-Hartley guinea-pigs
Protocol: Male Dunkin-Hartley guinea-pigs (300-350 g, n=6/group) were sensitised with 100 μg ovalubumin (OVA)+100 mg Al2(OH)3 in 1 ml normal saline (i.p.) on days 2 and 6. Parainfluenza virus (PIV-3; 10^6 infectious units) or media without virus was nasally instilled on days 11 and 12. Animals were treated with nebulised fluticasone propionate at a dose of 1.5 mg per day. […] All animals were challenged for 1 h with nebulised OVA (10 μg/ml) on day 15 and repeated measurements of specific airways conductance (sGaw) were made over a 24 h period using whole body plethysmography. Measurements of sGaw after OVA challenge are plotted as % change from baseline.

[3] = tested on: Differentiated U937 cells; test: MTT assay in differentiated U937 cells; assay type: cell-based, human; conditions: 4, 24 h (10 ug/ml)
Protocol: Differentiated U937 cells were pre-incubated with compound for 4 hrs in 5% FCS or 10% FCS for 24 hrs and 72 hrs. The supernatant was replaced with 200 ul of new media and 10 ul of MTT stock solution (5 mg/ml) added to each well. After 1 hr incubation, the media were removed, 200 ul of DMSO added to each well and the plates were shaken lightly for 1 hour prior to reading the absorbance at 550 nm.
The percentage loss of cell viability was calculated for each well relative to vehicle (0.5% DMSO)-treatment. Consequently an apparent increase in cell viability for drug treatment relative to vehicle is tabulated as a negative percentage.

[4] = tested on: Differentiated U937 cells; test: LPS-induced TNFα release in differentiated U937 cells; assay type: cell-based; conditions: Homo sapiens, U-937; 0.1 ug/ml LPS, 4 hrs; compound pre-incubated 2 hrs
Protocol: U937 cells, human monocytic cell line, were differentiated to macrophage-type cells by incubation with phorbol myristate acetate (PMA; 100 ng/ml) for 48 to 72 hours. Where appropriate, cells were pre-incubated with final concentrations of compound for 2 hrs. Cells were then stimulated with 0.1 ug/ml of LPS (from E. Coli: O111:B4, Sigma) for 4 hrs, and the supernatant collected for determination of TNFα concentration by sandwich ELISA (Duo-set, R&D systems). THP-1, human monocytic cell line, was also used for this assay. THP-1 cells were stimulated with 1 ug/ml of LPS (from E. Coli: O111:B4, Sigma) for 4 hrs, and the supernatant collected for determination of TNFα concentration.

[5] = tested on: neutrophil and macrophage accumulation into airways of mice exposed to cigarette smoke; test: Cigarette smoke model; assay type: in vivo, A/J mice; conditions: intra-nasal, twice daily for 3 days
Protocol: A/J mice (males, 5 weeks old) were exposed to cigarette smoke (4% cigarette smoke, diluted with compressed air) for 30 min/day for 11 days using a Tobacco Smoke Inhalation Experiment System for small animals (Model SIS-CS; Sibata Scientific Technology, Tokyo, Japan). Test substances were given intra-nasally (35 μl of solution in 50% DMSO/PBS) and therapeutically twice daily for 3 days after the final cigarette smoke exposure. Twelve hours after the last dosing, animals were anesthetized, the trachea cannulated and bronchoalveolar lavage fluid (BALF) was collected. The numbers of alveolar macrophages and neutrophils were determined by FACS analysis (EPICS® ALTRA II, Beckman Coulter, Inc., Fullerton, Calif., USA) using anti-mouse MOMA2 antibody (macrophage) or anti-mouse 7/4 antibody (neutrophil).
The results are shown in FIG. 3 for activated alveolar macrophages and in FIG. 4 for neutrophils. Data for cell numbers are shown as the mean±SEM.

Row | SMILES | inhibition at 50 µg/mL ([1]; Mus musculus, Neutrophil, 50 μg/ml (35 μl, bid)) [%] | Ovalbumin-mediated lung function changes ([2]; sensitized animals treated with PIV3 medium (no virus), nebulised 1.5 mg per day) | Inhibition of LPS-induced neutrophil accumulation ([1]; mouse, intra tracheal pre-dosing, BALF 8 hours after LPS) | Duration of effect on LPS-induced neutrophil accumulation ([1]; mouse, pre-dose time before LPS) | Differentiated U937 cells MTT assay [3] | IC50 [4] [nM] | Efficacy in ovalbumin challenge/parainfluenza model of steroid-resistant inflammation ([2]; guinea pigs, PIV3 inoculated, 4.5 mg per day nebulised) | Efficacy in cigarette smoke model of steroid-resistant inflammation [5]
1 | CCC(=O)O[C@]1(C(=O)SCF)[C@H](C)C[C@H]2[C@@H]3C[C@H](F)C4=CC(=O)C=C[C@]4(C)[C@@]3(F)[C@@H](O)C[C@@]21C [fluticasone propionate, reference compound] | > 80 | inhibited ovalbumin-mediated lung function changes |  |  |  |  |  | 
2 | COCC(=O)Nc1cc(COc2ccc(NC(=O)Nc3cc(C(C)(C)C)nn3-c3ccc(C)cc3)c3ccccc23)ccn1 [Example 1, N-[4-({4-[3-(3-tert-Butyl-1-p-tolyl-1H-pyrazol-5-yl)ureido]naphthalen-1-yloxy}methyl)pyridin-2-yl]-2-methoxyacetamide] |  |  | effective in inhibiting LPS-induced neutrophil accumulation | significant inhibition even at 12 or more hours of pre-dosing | Negative^2 | 0.88 | effective | effective
